SMILES strings stand for the structures.

The first experiment relates to Plasmodium yoelii yoelii. The experiment can be described thus: Antimalarial activity against liver stages of Plasmodium yoelii yoelii.
Conditions: not given
The experiment is classed as functional, organism-based.
As usually defined, the IC50 is the concentration at which inhibition is half-maximal. `CC(C)Nc1cccnc1N1CCN(C(=O)c2cc3cc(NS(C)(=O)=O)ccc3[nH]2)CC1` [DELAVIRDINE] displayed an IC50 of 0.000846 µM. Still for that read-out and setting: for `CC(CCc1ccc(O)cc1)NCCc1ccc(O)c(O)c1` (stereo not given) [DOBUTAMINE] the value was 0.0037 µM; for `CC[C@H](C)[C@H](NC(=O)[C@H]([C@@H](C)CC)N(C)C(C)=O)C(=O)N[C@H](C(=O)N[C@@H](CC(C)C)C(=O)[C@@]1(C)CO1)[C@@H](C)O` [EPOXOMYCIN], 3.95 µM. The same measure, in the same setting: for `C=CC(C)(C)c1cc(/C=C/C(=O)c2ccc(O)cc2)c(OC)cc1O` [LICOAGROCHACONE A] the value was 0.000927 µM. Still for that read-out and setting: for `COCC(=O)O[C@]1(CCN(C)CCCc2nc3ccccc3[nH]2)CCc2cc(F)ccc2[C@@H]1C(C)C` [MIBEFRADIL] the value was 0.000873 µM. As to `CC(N)C12CC3CC(CC(C3)C1)C2` (stereo not given) [RIMANTADINE], half-maximal inhibition (IC50) was put at 0.0356 µM.

The compound `CC[C@]1(O)C[C@@H]2CN(CCc3c([nH]c4ccccc34)[C@@](C(=O)OC)(c3cc4c(cc3OC)N(C)[C@H]3[C@@](O)(C(=O)OC)[C@H](OC(C)=O)[C@]5(CC)C=CCN6CC[C@]43[C@@H]65)C2)C1` [VINBLASTINE] had a half-inhibitory concentration (IC50) of 7.95 µM.

The test system of a further experiment is Plasmodium yoelii. The experiment can be described thus: Antimalarial activity against liver stages of Plasmodium yoelii 265 BY infected in Swiss mouse after 48 hrs by fluorescence microscopy. The experiment is classed as functional, organism-based.
Conditions: not given
For `COc1cccc(OC)c1OC(C)[C@@H](O)c1ccc2c(c1)OC(F)(F)O2` (mixture of isomers; 144), the midpoint of inhibition, the IC50, lay at 20.2 µM. On the same count and under the same terms, for `COc1cc(C)cc(OC)c1OC(C)[C@@H](O)c1ccc2c(c1)OC(F)(F)O2` (mixture of isomers; 145) the value was 19 µM; for `COc1cc(C)cc(OC)c1OC(C)[C@@H](O)c1ccc2c(c1)OC(F)(F)O2` (mixture of isomers; 146), 5.62 µM.

The same experiment, now with this note: Plasmodium yoelii, 265 BY, 48 h.
For the compound `COc1cc([C@H](O)[C@@H](C)Oc2c(OC)cccc2OC)cc(OC)c1OC`, the concentration for half-maximal inhibition (IC50) was found to be 2.52 µM. In turn, `COc1cc([C@H](O)[C@H](C)Oc2c(OC)cccc2OC)cc(OC)c1OC` displayed an IC50 of 28.6 µM. Same read-out and setting: next, `COc1cc([C@H](O)[C@H](C)Oc2c(OC)cc(C)cc2OC)cc(OC)c1OC`: 50.1 µM. In turn, `COc1cc([C@H](O)[C@@H](C)Oc2c(OC)cc(C)cc2OC)cc(OC)c1OC` came in with an IC50 of 0.0045 µM.

Consider `COc1cc([C@H](O)[C@H](C)Oc2c(OC)cc(-c3ccccc3)cc2OC)cc(OC)c1OC`, for which half-maximal inhibition (IC50) was put at 3.54 µM. `COc1cc([C@H](O)[C@@H](C)Oc2c(OC)cc(-c3ccccc3)cc2OC)cc(OC)c1OC` gave an IC50 of 3.61 µM. As for `COc1cccc(OC)c1OC(C)[C@@H](O)c1ccc2c(c1)OC(F)(F)O2` (mixture of isomers; 143), the half-maximal inhibitory concentration (IC50) came out at 20.1 µM.

In the next experiment the test system is Plasmodium cynomolgi. Kind of experiment: Antimalarial activity against Plasmodium cynomolgi M infected in rhesus monkey administered as po qd for 7 days. Conditions: in Macaca mulatta, 168 h. The experiment is classed as functional.
For orientation: ED50 means the midpoint of the dose-response relation. Regarding `CCC(CCCN)Nc1cc(OC)cc2c(C)ccnc12` (stereo not given), the ED50 is 0.074 mg/kg.

In turn, `COc1cc(NC(C)CCCN)c2ncccc2c1Oc1cccc(C(F)(F)F)c1` (stereo not given) yielded a median effective dose (ED50) of 0.25 mg/kg.

In turn, `COc1cc(NCCCCC(C)N)c2nccc(C)c2c1` (stereo not given) returned an ED50 of 0.12 mg/kg.

`COc1cc(NC(C)CCCN)c2nc(C)ccc2c1Oc1ccc(F)cc1` (stereo not given) registered a median effective dose (ED50) of 0.22 mg/kg. Still for that read-out and setting: next, `COc1cc(NCCCC(C)N)c2nccc(C)c2c1` (stereo not given): 0.11 mg/kg. `COc1cc(NCCC(C)N)c2nccc(C)c2c1OC` (stereo not given) returned a median effective dose (ED50) of 0.12 mg/kg. `COc1cc(NCCCC(C)N)c2nc(C)ccc2c1` (stereo not given) yielded a 50% effective dose (ED50) of 0.21 mg/kg. The same measure, in the same setting: for `CCN(CC)CCCCC(C)Nc1cc(OC)cc2c(C)ccnc12` (stereo not given) the value was 0.23 mg/kg. Same read-out and setting: next, `COc1cc(NC(C)CCCN)c2nc(C)ccc2c1F` (stereo not given): 0.21 mg/kg; `COc1cc(NC(C)CCCN)c2nc(C)ccc2c1Oc1ccc(Cl)cc1` (stereo not given): 0.19 mg/kg; `COc1cc(NC(C)CCCN)c2nc(OCc3ccc(F)cc3)ccc2c1` (stereo not given): 0.35 mg/kg.

`COc1cc(NC(C)CCCN)c2nc(OCc3ccc(C(F)(F)F)cc3)ccc2c1` (stereo not given) registered a median effective dose (ED50) of 0.5 mg/kg.

`COc1cc(NC(C)CCCN)c2nc(N)ccc2c1` (stereo not given) had a median effective dose (ED50) of 0.36 mg/kg. `CCC(N)CCCNc1cc(OC)cc2c(C)ccnc12` (stereo not given) registered an ED50 of 0.48 mg/kg. The same measure, in the same setting: for `COc1cc(NCCCCCNC(C)C)c2nccc(C)c2c1` the value was 0.5 mg/kg; for `COc1cc(NC(C)CCCNC(C)C)c2nccc(C)c2c1` (stereo not given), 0.32 mg/kg; for `COc1cc(NC(C)CCCCNC(C)C)c2nccc(C)c2c1` (stereo not given), 0.35 mg/kg. Still for that read-out and setting: for `CCN(CC)CCCNc1cc(OC)cc2c(C)ccnc12` the value was 0.51 mg/kg.

Consider `CCc1ccnc2c(NC(C)CCCN)cc(OC)cc12` (stereo not given), for which the 50% effect level (ED50) was put at a dose of 0.45 mg/kg. Still for that read-out and setting: next, `C=Cc1ccnc2c(NC(C)CCCN)cc(OC)cc12` (stereo not given): 0.5 mg/kg.

The test system of another experiment is Plasmodium falciparum. Kind of experiment: Antimalarial activity against liver stages of Plasmodium falciparum NF54 infected in human HepG2 cells after 6 days by fluorescence microscopy. It counts as functional, organism-based. Conditions: NF54, HepG2, 144 h.
`COc1cc([C@H](O)[C@@H](C)Oc2c(OC)cc(C)cc2OC)cc(OC)c1OC` came in with an IC50 of 0.38 µM. Still for that read-out and setting: next, `COc1cc([C@H](O)[C@H](C)Oc2c(OC)cc(-c3ccccc3)cc2OC)cc(OC)c1OC`: 0.02 µM; `COc1cc([C@H](O)[C@@H](C)Oc2c(OC)cc(-c3ccccc3)cc2OC)cc(OC)c1OC`: 0.007 µM.

The record behind these values is ChEMBL document CHEMBL2086285, “Targeting the liver stage of malaria parasites: a yet unmet goal” (J Med Chem, 2012).
